Source: patent publication US10092564B2, “Use of masitinib for treatment of an amyotrophic lateral sclerosis patient subpopulation” (AB SCIENCE, priority 2016, dated 2018)

Columns and labels:
[1] = tested on: patients suffering from amyotrophic lateral sclerosis (ALS); assay: Study AB10015: randomized, double-blind, placebo-controlled phase 2/3 study of masitinib in combination with riluzole versus placebo in combination with riluzole (interim and final analysis); type: in vivo, human; details: for Δ ALSFRS-R = (least squares means) change from baseline to week 48 in ALSFRS-R score: mITT; for Delta [CI] = absolute difference between subpopulations in Δ ALSFRS-R: in points
Excerpt: There are two distinct populations of ALS patients: a subpopulation of “normal progressors” and a subpopulation of “faster progressors”. The targeted population for primary analysis is the subpopulation of “normal progressors”. “Normal progressors” are defined as ALS patients whose progression of ALSFRS-R score before randomization is less than 1.1 point per month. This population should represent about 80% of ALS patients. The population of “normal progressors+faster progressors” comprises all ALS patients, “normal progressor” ALS patients or “faster progressor” ALS patients. “Faster progressors” are defined as ALS patients whose progression of ALSFRS-R score before randomization is greater than or equal to 1.1 points per month. Main Inclusion Criteria: • Female or male patient aged between 18 and 75 years of age, with a weight >50 kg and body mass index between 18 and 35 kg/m^2; • Familial or sporadic ALS; • Patient diagnosed with laboratory supported, clinically probable or definite ALS according to the World Federation of Neurology Revised El Escorial criteria [Brooks B R. […] For the morning dose, tablets were taken during breakfast. In case of nausea, the administration took place during lunch. For the evening dose, tablets were taken during dinner. Modified Intent-To-Treat (mITT) dataset—The mITT population will include all ITT patients with probable or definite amyotrophic lateral sclerosis who took at least one dose of study treatment (masitinib or placebo). Change from baseline to week 48 in the revised Amyotrophic Lateral Sclerosis Functional Rating Scale (ALSFRS-R) In accordance with study AB10015 protocol, an interim analysis was planned to be performed after around 50% of the information became available for analysis. At the time of the interim analysis, 192 (50%) out of a planned 381 patients who had been randomized before the 12 Feb. 2015 could have reached the week 48 visit. […] The interim analysis primary endpoint is based on the change from baseline to week 48 in ALSFRS-R. Primary analysis was performed in the mITT “normal progressor” (i.e. non-aggressive or moderately aggressive ALS) subpopulation. […] Missing values of ALSFRS-R at study visit were replaced based on the Modified Last Observation Carried Forward (mLOCF) method. Absolute change from baseline to week 48 in ALSFRS-R was estimated using a model of analysis of covariance (ANCOVA) adjusted on following factors: treatment (masitinib or placebo), and stratification criteria of: ALS patient subpopulation, progression of ALSFRS-R score (point/month) from date of first symptom to baseline, ALSFRS-R score at baseline, site of onset (bulbar versus others), age at baseline; and geographical region. Two-sided (1-alpha) confidence interval of the difference of mean change from baseline to week 48 between groups was calculated. The primary analysis used a re-randomization test. The re-randomization test, also referred to as a randomization test or permutation test, is a type of statistical significance test in which the distribution of the test statistic under the null hypothesis is obtained by calculating all possible values of the test statistic under rearrangements of the labels on the observed data points. The proportion of replicates for which the p-value of treatment factor is at least as small as the p-value of treatment factor from the original data was calculated. In this proportion the observed p-value of treatment factor is also accounted for as one replicate in numerator and denominator. This proportion is the p-value for the randomization test. […] To control overall family-wise type I error rate at the study level, analyses of efficacy was conducted in a stepwise manner (fixed sequence method). Fixed sequence method ensures that the population claimed and treated with a selected dosage will be done by controlling the global family-wise error rate at the 0.0311 level for the primary analysis. […]

people with ALS = details: cited from earlier work

Question: Which “Δ ALSFRS-R = (least squares means) change from baseline to week 48 in ALSFRS-R score” value ([1]; final AB10015, faster progressor subgroup (≥1.1 pts/m), masitinib 4.5 mg/kg/day plus riluzole, comparison with placebo arm) does the source give for `Cc1ccc(NC(=O)c2ccc(CN3CCN(C)CC3)cc2)cc1Nc1nc(-c2cccnc2)cs1` [Masitinib (4.5), 4-(4-methylpiperazin-1-ylmethyl)-N-[4-methyl-3-(4-pyridin-3ylthiazol-2-ylamino)phenyl]benzamide] here?
Answer: −17.9268

Question: What about the “Δ ALSFRS-R = (least squares means) change from baseline to week 48 in ALSFRS-R score” value ([1]; final AB10015, masitinib 4.5 mg/kg/day treated faster progressors (≥1.1 pts/m), comparison moderately aggressive vs faster progressors) of the same compound?
Answer: −25.0567

Question: And the “Δ ALSFRS-R = (least squares means) change from baseline to week 48 in ALSFRS-R score” value ([1]; final AB10015, masitinib 4.5 mg/kg/day treated faster progressors (≥1.1 pts/m), comparison non-aggressive vs faster progressors)?
Answer: −18.2920

Question: What about the “Δ ALSFRS-R = (least squares means) change from baseline to week 48 in ALSFRS-R score” value ([1]; final AB10015, masitinib 4.5 mg/kg/day treated moderately aggressive (≥0.8 to <1.1 pts/m), comparison moderately aggressive vs faster progressors) of the same compound?
Answer: −15.7258

Question: And the “Δ ALSFRS-R = (least squares means) change from baseline to week 48 in ALSFRS-R score” value ([1]; final AB10015, masitinib 4.5 mg/kg/day treated moderately aggressive plus aggressive (≥0.8 pts/m), comparison with non-aggressive)?
Answer: −15.9080

Question: What about the “Δ ALSFRS-R = (least squares means) change from baseline to week 48 in ALSFRS-R score” value ([1]; final AB10015, masitinib 4.5 mg/kg/day treated non-aggressive (<0.8 pts/m), comparison non-aggressive vs faster progressors) of the same compound?
Answer: −7.4509

Question: What about the “Δ ALSFRS-R = (least squares means) change from baseline to week 48 in ALSFRS-R score” value ([1]; final AB10015, masitinib 4.5 mg/kg/day treated non-aggressive (<0.8 pts/m), comparison non-aggressive vs moderately aggressive plus aggressive) of the same compound?
Answer: −7.8085

Question: What about the “Delta [CI] = absolute difference between subpopulations in Δ ALSFRS-R” value ([1]; final AB10015, masitinib 4.5 mg/kg/day treated patients, moderately aggressive (≥0.8 to <1.1 pts/m) vs faster progressors (≥1.1 pts/m), week 48, CI [−19.4226, 0.761], P=0.0687) of the same compound?
Answer: −9.3308[−19.4226;

Question: And the “Delta [CI] = absolute difference between subpopulations in Δ ALSFRS-R” value ([1]; final AB10015, masitinib 4.5 mg/kg/day treated patients, non-aggressive (<0.8 pts/m) vs moderately aggressive plus aggressive (≥0.8 pts/m), week 48, CI [−12.3719, −3.8271], P=0.0003)?
Answer: −8.0995[−12.3719;

Question: What about the “Δ ALSFRS-R = (least squares means) change from baseline to week 48 in ALSFRS-R score” value ([1]; final AB10015, non-aggressive subgroup (<0.8 pts/m), masitinib 4.5 mg/kg/day plus riluzole, comparison with placebo arm) of the same compound?
Answer: −8.2552

Question: What about the “Δ ALSFRS-R = (least squares means) change from baseline to week 48 in ALSFRS-R score” value ([1]; final AB10015, normal progressor subgroup (<1.1 pts/m), masitinib 4.5 mg/kg/day plus riluzole, comparison with placebo arm) of the same compound?
Answer: −8.7045

Question: What about the “Δ ALSFRS-R = (least squares means) change from baseline to week 48 in ALSFRS-R score” value ([1]; final AB10015, overall study population (normal progressor and faster progressor), masitinib 4.5 mg/kg/day plus riluzole, comparison with placebo arm) of the same compound?
Answer: −10.7019

Question: And the “conclusion on treatment effectiveness” value ([1]; final analysis, ALS patients with progression of ALSFRS-R score prior to treatment initiation of less than 1.1 points per month)?
Answer: effective treatment

Question: What about the “Δ ALSFRS-R = (least squares means) change from baseline to week 48 in ALSFRS-R score” value ([1]; final analysis, masitinib 4.5 mg/kg/day treated faster progressors (>1.1 pts/m), comparison normal vs faster progressors) of the same compound?
Answer: −19.5855

Question: And the “Δ ALSFRS-R = (least squares means) change from baseline to week 48 in ALSFRS-R score” value ([1]; final analysis, masitinib 4.5 mg/kg/day treated normal progressors (<1.1 pts/m), comparison normal vs faster progressors)?
Answer: −8.3939

Question: And the “Δ ALSFRS-R = (least squares means) change from baseline to week 48 in ALSFRS-R score” value ([1]; final analysis, moderately aggressive subgroup (≥0.8 to <1.1 pts/m), masitinib 4.5 mg/kg/day plus riluzole, comparison with placebo arm)?
Answer: −11.0031

Question: And the “conclusion on treatment effectiveness” value ([1]; final analysis, progression of ALSFRS-R score of at least 1.1 points per month (aggressive ALS))?
Answer: ineffective treatment

Question: And the “conclusion on treatment effectiveness” value ([1]; final analysis, progression of ALSFRS-R score of less than 0.8 points per month (non-aggressive ALS))?
Answer: most effective

Question: What about the “conclusion on treatment effectiveness” value ([1]; final analysis, progression of ALSFRS-R score of ≥0.8 to <1.1 points per month (moderately aggressive ALS), to a lesser extent than non-aggressive) of the same compound?
Answer: effective

Question: And the “difference between treatment-arms (masitinib versus placebo) in ALSFRS-R change from baseline to week 48” value ([1]; final, faster progressors subpopulation (≥1.1 points per month), 4.5 mg/kg/day)?
Answer: No significant difference

Question: And the “average decrease in ALSFRS-R score” value ([1]; final, masitinib 4.5 mg/kg/day treated faster progressors, week 48)?
Answer: 19.6 points

Question: What about the “average decrease in ALSFRS-R score” value ([1]; final, masitinib 4.5 mg/kg/day treated normal progressors, week 48) of the same compound?
Answer: 8.4 points

Question: What about the “difference in decrease of ALSFRS-R score between normal progressors and faster progressors” value ([1]; final, masitinib 4.5 mg/kg/day treated patients, week 48, P<0.001) of the same compound?
Answer: 11.2 points

Question: What about the “treatment effect in terms of ALSFRS-R score of moderately aggressive ALS patients over aggressive ALS patients” value ([1]; final, masitinib treated, ≥0.8 to <1.1 vs ≥1.1 points per month) of the same compound?
Answer: strong trend in treatment effect

Question: And the “retardation in ALSFRS-R score, difference masitinib versus placebo” value ([1]; final, moderately aggressive ALS patients (≥0.8 to <1.1 points per month), 4.5 mg/kg/day, week 48)?
Answer: 2.2 points

Question: What about the “change in ALSFRS-R score” value ([1]; final, moderately aggressive ALS patients (≥0.8 to <1.1 points per month), masitinib 4.5 mg/kg/day, week 48, placebo −13.2) of the same compound?
Answer: −11 points

Question: And the “retardation in ALSFRS-R score, difference masitinib versus placebo” value ([1]; final, non-aggressive ALS patients (<0.8 points per month), 4.5 mg/kg/day, week 48)?
Answer: 3.4 points

Question: What about the “change in ALSFRS-R score” value ([1]; final, non-aggressive ALS patients (<0.8 points per month), masitinib 4.5 mg/kg/day, week 48, placebo −11.7) of the same compound?
Answer: −8.3 points

Question: And the “difference in ALSFRS-R score between masitinib and placebo” value ([1]; final, normal progressors (<1.1 points per month), 4.5 mg/kg/day, week 48)?
Answer: 3.4 points

Question: What about the average decrease in ALSFRS-R score ([1]; final, normal progressors (<1.1 points per month), masitinib 4.5 mg/kg/day, week 48, placebo −12.1, P=0.0142) of the same compound?
Answer: 8.7 points

Question: And the “difference between treatment-arms (masitinib versus placebo) in ALSFRS-R change from baseline to week 48” value ([1]; final, overall study population (normal progressor and faster progressor patients), 4.5 mg/kg/day, P=0.11)?
Answer: no significant difference

Question: And the “Δ ALSFRS-R = (least squares means) change from baseline to week 48 in ALSFRS-R score” value ([1]; interim AB10015, faster progressor subgroup (≥1.1 points/month), masitinib 4.5 mg/kg/day plus riluzole, comparison with placebo arm)?
Answer: −20.77

Question: What about the “Δ ALSFRS-R = (least squares means) change from baseline to week 48 in ALSFRS-R score” value ([1]; interim AB10015, masitinib 4.5 mg/kg/day treated faster progressors (≥1.1 points/month), subpopulation comparison normal vs faster) of the same compound?
Answer: −17.90

Question: And the “Δ ALSFRS-R = (least squares means) change from baseline to week 48 in ALSFRS-R score” value ([1]; interim AB10015, masitinib 4.5 mg/kg/day treated normal progressors (<1.1 points/month), subpopulation comparison normal vs faster)?
Answer: −5.57

Question: What about the “Δ ALSFRS-R = (least squares means) change from baseline to week 48 in ALSFRS-R score” value ([1]; interim AB10015, normal progressor subgroup (<1.1 points/month), masitinib 4.5 mg/kg/day plus riluzole, comparison with placebo arm) of the same compound?
Answer: −9.02

Question: What about the “difference between treatment-arms (masitinib versus placebo) in ALSFRS-R change from baseline to week 48” value ([1]; interim, faster progressor subpopulation, 4.5 mg/kg/day) of the same compound?
Answer: No significant difference

Question: And the “average decrease in ALSFRS-R score” value ([1]; interim, masitinib 4.5 mg/kg/day treated faster progressor (aggressive ALS) patients, week 48)?
Answer: 17.9 points

Question: What about the “average decrease in ALSFRS-R score” value ([1]; interim, masitinib 4.5 mg/kg/day treated normal progressor (non-aggressive or moderately aggressive ALS) patients, week 48) of the same compound?
Answer: 5.57 points

Question: And the “average decrease in ALSFRS-R score” value ([1]; interim, normal progressors, masitinib 4.5 mg/kg/day, baseline to week 48, placebo 14.51, P=0.0032)?
Answer: 9.02 points

Question: With `Nc1nc2ccc(OC(F)(F)F)cc2s1` [riluzole, 6-(trifluoromethoxy)benzothiazol-2-amine] as the compound, how does the “effect on patient function” value (people with ALS; any of the randomized trials considered separately) read?
Answer: no beneficial effect

Question: What about the “effect on bulbar and limb function” value (people with ALS; data of the trials combined, not on muscle strength, to be interpreted with caution) of the same compound?
Answer: small beneficial effect

Question: And the “safety of the drug” value (people with ALS; riluzole 100 mg, meta-analysis)?
Answer: not a major concern
